The source of these data is PubChem BioAssay AID246 (DTP/NCI, 2004).

This test concerns BDF1 mice, P1081 chloroleukemia ip, survival T/C. Kind of test: NCI In Vivo Anticancer Drug Screen. Data for tumor model P1081 Chloroleukemia (intraperitoneal) in B6D2F1 (BDF1) mice. As to conditions: endpoint: mean survival time, higher = longer survival. The method, then:
The antitumor activity of compounds was measured in mice bearing transplantable tumors. Survival or tumor size were measured and the results are expressed as the measurement made in the treated group (T) divided by the measurement made in the vehicle treated control group (C). The tumor model used in this assay is P1081 Chloroleukemia (intraperitoneal) in B6D2F1 (BDF1) mice

[1] abbreviates: dose: 6.25 mg/kg/injection, schedule: Q01DX Z (ip), vehicle: carboxymethylcellulose (CMC).
Setting [2] is: dose: 12.5 mg/kg/injection, schedule: Q01DX Z (ip), vehicle: carboxymethylcellulose (CMC).
[3] abbreviates: dose: 25.0 mg/kg/injection, schedule: Q01DX Z (ip), vehicle: carboxymethylcellulose (CMC).
[4] abbreviates: dose: 50.0 mg/kg/injection, schedule: Q01DX Z (ip), vehicle: carboxymethylcellulose (CMC).
Where [5] appears, read: dose: 6.3 mg/kg/injection, schedule: Q01DX Z (ip), vehicle: saline.

The structures appear in SMILES notation. Values joined by “and” are separate entries in the source; they are usually repeats but may differ in a detail not shown here. Equal entries are not always repeated. Toxic doses and inconclusive results are not listed.

With `O=C(O)CCCc1ccc(N(CCCl)CCCl)cc1`, the T/C is, setting by setting: (dose: 0.8 mg/kg/injection, schedule: Q01DX Z (ip), vehicle: carboxymethylcellulose (CMC)) 90 % of control; (dose: 1.6 mg/kg/injection, schedule: Q01DX Z (ip), vehicle: carboxymethylcellulose (CMC)) 92 % of control; (dose: 3.1 mg/kg/injection, schedule: Q01DX Z (ip), vehicle: carboxymethylcellulose (CMC)) 102 % of control; (dose: 3.13 mg/kg/injection, schedule: Q01DX010 (ip), vehicle: saline) 105 % of control and 120 % of control; (dose: 6.2 mg/kg/injection, schedule: Q01DX Z (ip), vehicle: carboxymethylcellulose (CMC)) 113 % of control; (dose: 6.25 mg/kg/injection, schedule: Q01DX010 (ip), vehicle: saline) 105 % of control and 115 % of control. Moreover, the T/C under setting [1] was 86 % of control, the T/C under setting [2] is 107 % of control, the T/C under setting [3] is 114 % of control and the T/C under setting [4] is 102 % of control.

With `O=P1(N(CCCl)CCCl)NCCCO1` (configuration not stated), the T/C is 110 % of control (dose: 3.12 mg/kg/injection, schedule: Q01DX Z (ip), vehicle: saline); 119 % of control (dose: 6.25 mg/kg/injection, schedule: Q01DX Z (ip), vehicle: saline); 102 % of control under setting [5]; 113 % of control and 117 % of control (2×) (dose: 11.3 mg/kg/injection, schedule: Q01DX010 (ip), vehicle: saline); 107 % of control and 120 % of control and 121 % of control (dose: 22.5 mg/kg/injection, schedule: Q01DX010 (ip), vehicle: saline); 105 % of control and 107 % of control (dose: 45.0 mg/kg/injection, schedule: Q01DX010 (ip), vehicle: saline). For the same compound, the T/C reads like this: (dose: 90.0 mg/kg/injection, schedule: Q01DX010 (ip), vehicle: saline) 105 % of control and 90 % of control; (dose: 100.0 mg/kg/injection, schedule: Q01DX Z (ip), vehicle: saline) 115 % of control; (dose: 180.0 mg/kg/injection, schedule: Q01DX010 (ip), vehicle: saline) 87 % of control.

Take `CCN(CC)c1ccc2cc3ccc(=[N+](CC)CC)cc-3oc2c1`: the T/C by setting is: (dose: 0.31 mg/kg/injection, schedule: Q01DX Z (ip), vehicle: carboxymethylcellulose (CMC)) 101 % of control; (dose: 0.63 mg/kg/injection, schedule: Q01DX Z (ip), vehicle: carboxymethylcellulose (CMC)) 98 % of control; (dose: 1.25 mg/kg/injection, schedule: Q01DX Z (ip), vehicle: carboxymethylcellulose (CMC)) 108 % of control; (dose: 2.5 mg/kg/injection, schedule: Q01DX Z (ip), vehicle: carboxymethylcellulose (CMC)) 105 % of control and 114 % of control; (dose: 5.0 mg/kg/injection, schedule: Q01DX Z (ip), vehicle: carboxymethylcellulose (CMC)) 96 % of control.

As for `O=c1[nH]c(=O)n(C2CC(O)C(CO)O2)cc1Br` (configuration not stated), the T/C is 86 % of control (dose: 16.0 mg/kg/injection, schedule: Q01DX Z (ip), vehicle: carboxymethylcellulose (CMC)); 107 % of control and 88 % of control (dose: 31.0 mg/kg/injection, schedule: Q01DX Z (ip), vehicle: carboxymethylcellulose (CMC)); 106 % of control and 99 % of control (dose: 62.5 mg/kg/injection, schedule: Q01DX Z (ip), vehicle: carboxymethylcellulose (CMC)); 88 % of control (dose: 125.0 mg/kg/injection, schedule: Q01DX Z (ip), vehicle: carboxymethylcellulose (CMC)); 101 % of control (dose: 250.0 mg/kg/injection, schedule: Q01DX Z (ip), vehicle: carboxymethylcellulose (CMC)).

On to `C[C@]12CCC(=O)C=C1CC[C@@H]1[C@@H]2C(=O)C[C@@]2(C)[C@H]1CC[C@]2(O)C(=O)CO`, for which the T/C is 103 % of control (dose: 6.25 mg/kg/injection, schedule: Q01DX Z (sc), vehicle: steriod suspending solution); 102 % of control (dose: 12.5 mg/kg/injection, schedule: Q01DX Z (sc), vehicle: steriod suspending solution); 123 % of control and 102 % of control (dose: 25.0 mg/kg/injection, schedule: Q01DX Z (sc), vehicle: steriod suspending solution); 111 % of control (dose: 50.0 mg/kg/injection, schedule: Q01DX Z (sc), vehicle: steriod suspending solution); 116 % of control (dose: 100.0 mg/kg/injection, schedule: Q01DX Z (sc), vehicle: steriod suspending solution).

Consider `CN(C)[C@@H]1C(=O)C(C(N)=O)=C(O)[C@@]2(O)C(=O)C3=C(O)c4c(O)cccc4C[C@H]3C[C@@H]12`, for which the T/C is, setting by setting: (dose: 7.5 mg/kg/injection, schedule: Q01DX010 (ip), vehicle: saline) 100 % of control; (dose: 15.0 mg/kg/injection, schedule: Q01DX010 (ip), vehicle: saline) 90 % of control and 100 % of control; (dose: 30.0 mg/kg/injection, schedule: Q01DX010 (ip), vehicle: saline) 100 % of control and 105 % of control; (dose: 60.0 mg/kg/injection, schedule: Q01DX010 (ip), vehicle: saline) 111 % of control.

Take `O=c1[nH]c(=O)n(C2CC(O)C(CO)O2)cc1F` (configuration not stated): the T/C (dose: 5.0 mg/kg/injection, schedule: Q01DX010 (ip), vehicle: saline) was 110 % of control; the T/C under setting [1] was 124 % of control; the T/C (dose: 10.0 mg/kg/injection, schedule: Q01DX010 (ip), vehicle: saline) was 120 % of control and 104 % of control; the T/C under setting [2] is 122 % of control; the T/C (dose: 20.0 mg/kg/injection, schedule: Q01DX010 (ip), vehicle: saline) is 110 % of control; the T/C (dose: 40.0 mg/kg/injection, schedule: Q01DX010 (ip), vehicle: saline) was 155 % of control and 250 % of control. Further, the T/C under setting [4] is 172 % of control.

On to `Cn1cc(NC(=O)c2cc(NC(=O)CN=C(N)N)cn2C)cc1C(=O)NCCC(=N)N`, for which the T/C runs as follows: under setting [5], 102 % of control; (dose: 12.5 mg/kg/injection, schedule: Q01DX Z (ip), vehicle: saline) 100 % of control; (dose: 25.0 mg/kg/injection, schedule: Q01DX Z (ip), vehicle: saline) 92 % of control.

Turning to `CC[C@@H](c1ccc(O)cc1)[C@@H](CC)c1ccc(O)cc1`, the T/C by setting is: (dose: 62.5 mg/kg/injection, schedule: Q01DX Z (sc), vehicle: steriod suspending solution) 101 % of control; (dose: 125.0 mg/kg/injection, schedule: Q01DX Z (sc), vehicle: steriod suspending solution) 104 % of control; (dose: 250.0 mg/kg/injection, schedule: Q01DX Z (sc), vehicle: steriod suspending solution) 108 % of control and 118 % of control and 105 % of control; (dose: 500.0 mg/kg/injection, schedule: Q01DX Z (sc), vehicle: steriod suspending solution) 108 % of control and 112 % of control and 103 % of control; (dose: 1000.0 mg/kg/injection, schedule: Q01DX Z (sc), vehicle: steriod suspending solution) 102 % of control; (dose: 2000.0 mg/kg/injection, schedule: Q01DX Z (sc), vehicle: steriod suspending solution) 100 % of control.

As for `CN(Cc1cnc2nc(N)nc(N)c2n1)c1c(Cl)cc(C(=O)NC(CCC(=O)O)C(=O)O)cc1Cl` (configuration not stated), the T/C by setting is: under setting [2], 101 % of control; under setting [3], 102 % of control.

For `Nc1nc(N)c2nc(CNc3ccc(C(=O)NC(CCC(=O)O)C(=O)O)cc3)cnc2n1` (configuration not stated), the T/C is 120 % of control (dose: 0.05 mg/kg/injection, schedule: Q01DX010 (ip), vehicle: other); 160 % of control and 170 % of control (dose: 0.2 mg/kg/injection, schedule: Q01DX010 (ip), vehicle: other); 90 % of control (dose: 0.4 mg/kg/injection, schedule: Q01DX010 (ip), vehicle: other); 117 % of control (dose: 8.0 micrograms/kg/injection, schedule: Q01DX Z (ip), vehicle: alkali diluted with saline); 107 % of control (dose: 16.0 micrograms/kg/injection, schedule: Q01DX Z (ip), vehicle: alkali diluted with saline); 99 % of control (dose: 31.0 micrograms/kg/injection, schedule: Q01DX Z (ip), vehicle: alkali diluted with saline).
